Source: PubChem BioAssay (NCI)
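Here, GI50 denotes the concentration required for 50% inhibition of growth. TGI is the concentration that stops growth completely.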

Columns and labels:
Test in all cases: NCI anticancer screen, dose series, 384-well format
786-0 renal = system: 786-0 renal
A498 renal = system: A498 renal
A549 NSCLC = system: A549 NSCLC
ACHN renal = system: ACHN renal
BT-549 breast = system: BT-549 breast
CAKI-1 renal = system: CAKI-1 renal
CCRF-CEM leukemia = system: CCRF-CEM leukemia
COLO 205 colon = system: COLO 205 colon
DU-145 prostate = system: DU-145 prostate
EKVX NSCLC = system: EKVX NSCLC
HCC-2998 colon = system: HCC-2998 colon
HCT-116 colon = system: HCT-116 colon
HCT-15 colon = system: HCT-15 colon
HL-60(TB) leukemia = system: HL-60(TB) leukemia
HOP-62 NSCLC = system: HOP-62 NSCLC
HOP-92 NSCLC = system: HOP-92 NSCLC
HS 578T breast = system: HS 578T breast
HT29 colon = system: HT29 colon
IGROV1 ovarian = system: IGROV1 ovarian
K-562 leukemia = system: K-562 leukemia
KM12 colon = system: KM12 colon
LOX IMVI melanoma = system: LOX IMVI melanoma
M14 melanoma = system: M14 melanoma
MALME-3M melanoma = system: MALME-3M melanoma
MCF7 breast = system: MCF7 breast
MDA-MB-231 breast = system: MDA-MB-231 breast
MDA-MB-435 melanoma = system: MDA-MB-435 melanoma
MDA-MB-468 breast = system: MDA-MB-468 breast
MOLT-4 leukemia = system: MOLT-4 leukemia
NCI-H226 lung = system: NCI-H226 lung
NCI-H23 lung = system: NCI-H23 lung
NCI-H322M lung = system: NCI-H322M lung
NCI-H460 NSCLC = system: NCI-H460 NSCLC
NCI-H522 lung = system: NCI-H522 lung
NCI/ADR-RES ovarian = system: NCI/ADR-RES ovarian
OVCAR-3 ovarian = system: OVCAR-3 ovarian
OVCAR-4 ovarian = system: OVCAR-4 ovarian
OVCAR-5 ovarian = system: OVCAR-5 ovarian
OVCAR-8 ovarian = system: OVCAR-8 ovarian
PC-3 prostate = system: PC-3 prostate
RPMI-8226 leukemia = system: RPMI-8226 leukemia
RXF 393 renal = system: RXF 393 renal
SF-268 CNS = system: SF-268 CNS
SF-295 CNS = system: SF-295 CNS
SF-539 CNS = system: SF-539 CNS
SK-MEL-28 melanoma = system: SK-MEL-28 melanoma
SK-MEL-5 melanoma = system: SK-MEL-5 melanoma
SK-OV-3 ovarian = system: SK-OV-3 ovarian
SN12C renal = system: SN12C renal
SNB-19 CNS = system: SNB-19 CNS
SNB-75 CNS = system: SNB-75 CNS
SW-620 colon = system: SW-620 colon
T-47D breast = system: T-47D breast
TK-10 renal = system: TK-10 renal
U251 glioblastoma = system: U251 glioblastoma
UACC-257 melanoma = system: UACC-257 melanoma
UACC-62 melanoma = system: UACC-62 melanoma
UO-31 renal = system: UO-31 renal

CC1=C2C[C@H]3[C@@H](CC[C@@H]4CC(NS(C)(=O)=O)CC[C@@]43C)[C@@H]2CC[C@@]2(C1)O[C@@H]1C[C@H](C)CN[C@H]1[C@H]2C (stereo partly specified)
GI50 ([…]-0 renal): 2.21 µM | TGI (786-0 renal): 5.06 µM | GI50 (A498 renal): 2.99 µM | TGI (A498 renal): 7.76 µM | GI50 (A549 NSCLC): 4 µM | TGI (A549 NSCLC): 14.2 µM | GI50 (ACHN renal): 2.62 µM | TGI (ACHN renal): 6.64 µM | GI50 (BT-549 breast): 4.17 µM | TGI (BT-549 breast): 12.8 µM | GI50 (CAKI-1 renal): 4.29 µM | TGI (CAKI-1 renal): 15.8 µM | GI50 (CCRF-CEM leukemia): 1.95 µM | TGI (CCRF-CEM leukemia): 3.74 µM | GI50 (COLO 205 colon): 2.46 µM | TGI (COLO 205 colon): 5.34 µM | GI50 (DU-145 prostate): 5.47 µM | TGI (DU-145 prostate): 16.6 µM | GI50 (EKVX NSCLC): 3.44 µM | TGI (EKVX NSCLC): 8.77 µM | GI50 (HCC-2998 colon): 3.47 µM | TGI (HCC-2998 colon): 9.91 µM | GI50 (HCT-116 colon): 3.83 µM | TGI (HCT-116 colon): 12.7 µM | GI50 (HCT-15 colon): 3.89 µM | TGI (HCT-15 colon): 13.6 µM | GI50 (HL-60(TB) leukemia): 3.3 µM | TGI (HL-60(TB) leukemia): 12.2 µM | GI50 (HOP-62 NSCLC): 4.47 µM | TGI (HOP-62 NSCLC): 15.1 µM | GI50 (HOP-92 NSCLC): 3.4 µM | TGI (HOP-92 NSCLC): 12.7 µM | GI50 (HS 578T breast): 10.8 µM | TGI (HS 578T breast): 22.7 µM | GI50 (HT29 colon): 1.9 µM | TGI (HT29 colon): 3.55 µM | GI50 (IGROV1 ovarian): 1.88 µM | TGI (IGROV1 ovarian): 3.47 µM | GI50 (K-562 leukemia): 1.83 µM | TGI (K-562 leukemia): 3.23 µM | GI50 (KM12 colon): 8.44 µM | TGI (KM12 colon): 20.6 µM | GI50 (LOX IMVI melanoma): 1.88 µM | TGI (LOX IMVI melanoma): 3.6 µM | GI50 (M14 melanoma): 2.49 µM | TGI (M14 melanoma): 5.93 µM | GI50 (MALME-3M melanoma): 1.88 µM | TGI (MALME-3M melanoma): 3.32 µM | GI50 (MCF7 breast): 3.24 µM | TGI (MCF7 breast): 11.9 µM | GI50 (MDA-MB-231 breast): 11.6 µM | TGI (MDA-MB-231 breast): 23.8 µM | GI50 (MDA-MB-435 melanoma): 12.4 µM | TGI (MDA-MB-435 melanoma): 25 µM | GI50 (MDA-MB-468 breast): 2.08 µM | TGI (MDA-MB-468 breast): 3.96 µM | GI50 (MOLT-4 leukemia): 1.83 µM | TGI (MOLT-4 leukemia): 3.55 µM | GI50 (NCI-H226 lung): 5.5 µM | TGI (NCI-H226 lung): 17.6 µM | GI50 (NCI-H23 lung): 14.9 µM | TGI (NCI-H23 lung): 28.2 µM | GI50 (NCI-H322M lung): 10.9 µM | TGI (NCI-H322M lung): 22.9 µM | GI50 (NCI-H460 NSCLC): 1.94 µM | TGI (NCI-H460 NSCLC): 3.61 µM | GI50 (NCI-H522 lung): 3.46 µM | TGI (NCI-H522 lung): 8.3 µM | GI50 (NCI/ADR-RES ovarian): 13.7 µM | TGI (NCI/ADR-RES ovarian): 26.7 µM | GI50 (OVCAR-3 ovarian): 3.97 µM | TGI (OVCAR-3 ovarian): 11.5 µM | GI50 (OVCAR-4 ovarian): 5.29 µM | TGI (OVCAR-4 ovarian): 14.8 µM | GI50 (OVCAR-5 ovarian): 13.8 µM | TGI (OVCAR-5 ovarian): 26.8 µM | GI50 (OVCAR-8 ovarian): 13.4 µM | TGI (OVCAR-8 ovarian): 26.3 µM | GI50 (PC-3 prostate): 3.6 µM | TGI (PC-3 prostate): 11.5 µM | GI50 (RPMI-8226 leukemia): 3.72 µM | TGI (RPMI-8226 leukemia): 11.2 µM | GI50 (RXF 393 renal): 2.98 µM | TGI (RXF 393 renal): 9.2 µM | GI50 (SF-268 CNS): 3.22 µM | TGI (SF-268 CNS): 9.73 µM | GI50 (SF-295 CNS): 13.3 µM | TGI (SF-295 CNS): 26.1 µM | GI50 (SF-539 CNS): 5.02 µM | TGI (SF-539 CNS): 15.9 µM | GI50 (SK-MEL-28 melanoma): 3.01 µM | TGI (SK-MEL-28 melanoma): 6.71 µM | GI50 (SK-MEL-5 melanoma): 1.72 µM | TGI (SK-MEL-5 melanoma): 3.12 µM | GI50 (SK-OV-3 ovarian): 3.8 µM | TGI (SK-OV-3 ovarian): 10.2 µM | GI50 (SN12C renal): 3.89 µM | TGI (SN12C renal): 13 µM | GI50 (SNB-19 CNS): 5.22 µM | TGI (SNB-19 CNS): 16.4 µM | GI50 (SNB-75 CNS): 3.82 µM | TGI (SNB-75 CNS): 15 µM | GI50 (SW-620 colon): 13.8 µM | TGI (SW-620 colon): 26.8 µM | GI50 (T-47D breast): 2.12 µM | TGI (T-47D breast): 4.28 µM | GI50 (TK-10 renal): 2.75 µM | TGI (TK-10 renal): 7.38 µM | GI50 (U251 glioblastoma): 4.31 µM | TGI (U251 glioblastoma): 14.2 µM | GI50 (UACC-257 melanoma): 2.19 µM | TGI (UACC-257 melanoma): 3.64 µM | GI50 (UACC-62 melanoma): 10.7 µM | TGI (UACC-62 melanoma): 22.6 µM | GI50 (UO-31 renal): 3.9 µM | TGI (UO-31 renal): 13.7 µM
